Laboratory results taken from EP0428423A2, “Aryloxy alkyl benzenes, processes for their preparation and pharmaceutical compositions containing them” (LIPHA S.A., priority 1989, dated 1991).

What was measured:
SOURIS = experiment: Diuretic activity in the mouse (hourly urine volume, sodium and potassium assay); type: in vivo; details: S = SOURIS, PO, at the dose (minimal active dose)
Text: (§1) d'urine sont déterminés toutes les heures. Le dosage de sodium et du potassium est effectué par spectrophotométrie.

ECHANGEUR D'ANIONS = target: T1, ECHANGEUR D'ANIONS (Homo sapiens, UniProt P02730); experiment: Anion exchanger of human erythrocytes; type: cell-based, ERYTHROCYTES HUMAINS
T1 construct: systèmes de transport du sodium et du potassium des érythrocytes humains; endogenous in cells; host or cells: human erythrocytes
T1 sequence (P02730 1-911): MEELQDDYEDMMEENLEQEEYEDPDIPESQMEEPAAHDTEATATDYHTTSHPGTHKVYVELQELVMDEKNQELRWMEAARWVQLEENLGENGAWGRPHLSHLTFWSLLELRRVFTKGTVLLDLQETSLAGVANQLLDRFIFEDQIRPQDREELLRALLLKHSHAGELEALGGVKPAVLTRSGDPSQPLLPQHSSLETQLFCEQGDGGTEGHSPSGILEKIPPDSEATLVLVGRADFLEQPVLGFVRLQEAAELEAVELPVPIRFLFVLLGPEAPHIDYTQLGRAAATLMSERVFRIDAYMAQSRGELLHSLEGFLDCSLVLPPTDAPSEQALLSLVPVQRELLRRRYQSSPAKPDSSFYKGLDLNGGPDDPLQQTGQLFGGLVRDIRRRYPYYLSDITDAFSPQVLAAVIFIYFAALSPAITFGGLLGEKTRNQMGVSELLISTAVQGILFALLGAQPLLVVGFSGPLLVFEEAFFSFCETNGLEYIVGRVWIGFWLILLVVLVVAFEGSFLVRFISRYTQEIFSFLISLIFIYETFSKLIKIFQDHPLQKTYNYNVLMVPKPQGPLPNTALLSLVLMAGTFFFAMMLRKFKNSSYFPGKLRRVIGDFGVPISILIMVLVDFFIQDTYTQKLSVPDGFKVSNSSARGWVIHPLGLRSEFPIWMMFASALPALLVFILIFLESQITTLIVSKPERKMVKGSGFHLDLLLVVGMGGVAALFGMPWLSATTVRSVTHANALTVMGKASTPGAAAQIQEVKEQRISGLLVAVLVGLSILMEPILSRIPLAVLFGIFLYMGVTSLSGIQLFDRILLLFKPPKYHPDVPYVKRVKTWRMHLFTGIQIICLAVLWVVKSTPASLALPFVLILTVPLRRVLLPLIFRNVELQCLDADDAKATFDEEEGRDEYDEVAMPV
Text: Cet effet a été étudié selon la méthodologie décrite par G. GARAY et coll. dans Naunyn-Schmidberg's Arch. Pharmakol. 334 (1986) 202-209 et dans Bioch. Pharm. 33 (1984) 2013-2020.

[1] = system: plasmas riches en plaquettes provenant de sang de rat; experiment: Platelet anti-aggregation in vitro, ADP-induced (Born aggregometer); type: cell-based; details: in vitro, aggregating agent ADP, rat platelet-rich plasma, 37°; M not defined in the text; mM printed only in the TICLOPIDINE line
Description: Les études ont été réalisées sur des plasmas riches en plaquettes provenant de sang de rat, l'agrégation étant induite par addition d'acide Adénosine diphosphorique. Les courbes néphélométriques d'agrégation sont obtenues en utilisant un agrégomètre de type BORN, le plasma étant placé en incubation à 37° avec agitation continue de 1100 t/mn (cf. BORN G.V.R et CROSS J. - J. Physiol. 168 (1962) 178.

RAT = experiment: Diuretic activity in the rat (hourly urine volume, sodium and potassium assay); type: in vivo; details: po; R = RAT; diuretic activity; read-out: Dose minimale active
Text: as §1

lipoxygénase de soja = target: T2, lipoxygénase de soja (Glycine max, UniProt P08170); experiment: Anti-lipoxygenase action on soybean lipoxygenase; type: biochemical
T2 sequence (P08170 1-839): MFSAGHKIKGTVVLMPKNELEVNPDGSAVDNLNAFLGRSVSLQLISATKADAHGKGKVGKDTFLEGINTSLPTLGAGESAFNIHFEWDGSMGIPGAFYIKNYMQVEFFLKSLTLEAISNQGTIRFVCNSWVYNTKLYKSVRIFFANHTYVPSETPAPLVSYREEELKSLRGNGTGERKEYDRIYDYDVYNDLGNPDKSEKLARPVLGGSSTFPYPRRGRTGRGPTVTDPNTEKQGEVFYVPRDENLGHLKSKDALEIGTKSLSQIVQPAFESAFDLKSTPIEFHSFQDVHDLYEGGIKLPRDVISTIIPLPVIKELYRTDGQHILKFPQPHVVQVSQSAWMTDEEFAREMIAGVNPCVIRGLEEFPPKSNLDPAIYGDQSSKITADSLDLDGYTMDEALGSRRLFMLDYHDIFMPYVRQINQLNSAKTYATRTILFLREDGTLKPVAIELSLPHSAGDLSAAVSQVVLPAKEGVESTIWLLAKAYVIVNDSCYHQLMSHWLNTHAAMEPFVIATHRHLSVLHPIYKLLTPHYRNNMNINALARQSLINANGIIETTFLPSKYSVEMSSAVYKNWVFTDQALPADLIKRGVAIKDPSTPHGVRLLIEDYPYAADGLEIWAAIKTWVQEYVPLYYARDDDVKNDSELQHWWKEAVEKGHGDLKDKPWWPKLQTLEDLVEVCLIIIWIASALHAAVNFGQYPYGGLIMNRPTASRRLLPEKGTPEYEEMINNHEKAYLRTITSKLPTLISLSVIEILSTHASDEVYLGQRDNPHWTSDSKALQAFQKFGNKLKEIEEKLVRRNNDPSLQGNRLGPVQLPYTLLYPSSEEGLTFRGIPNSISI
Text: L'action anti-lipoxygénase a été étudiée sur la lipoxygénase de soja selon la méthode décrite par W.L SMITH et W.E LANDS (J. Biol. Chem. 247 (1972) 1038-1047)

COTRANSPORT Na-K = target: T3, COTRANSPORT Na-K (Homo sapiens, UniProt P55011); experiment: Na-K cotransport of human erythrocytes; type: cell-based, ERYTHROCYTES HUMAINS; details: human erythrocytes
T3 construct: systèmes de transport du sodium et du potassium des érythrocytes humains; endogenous in cells; host or cells: human erythrocytes
T3 sequence (P55011 1-1212): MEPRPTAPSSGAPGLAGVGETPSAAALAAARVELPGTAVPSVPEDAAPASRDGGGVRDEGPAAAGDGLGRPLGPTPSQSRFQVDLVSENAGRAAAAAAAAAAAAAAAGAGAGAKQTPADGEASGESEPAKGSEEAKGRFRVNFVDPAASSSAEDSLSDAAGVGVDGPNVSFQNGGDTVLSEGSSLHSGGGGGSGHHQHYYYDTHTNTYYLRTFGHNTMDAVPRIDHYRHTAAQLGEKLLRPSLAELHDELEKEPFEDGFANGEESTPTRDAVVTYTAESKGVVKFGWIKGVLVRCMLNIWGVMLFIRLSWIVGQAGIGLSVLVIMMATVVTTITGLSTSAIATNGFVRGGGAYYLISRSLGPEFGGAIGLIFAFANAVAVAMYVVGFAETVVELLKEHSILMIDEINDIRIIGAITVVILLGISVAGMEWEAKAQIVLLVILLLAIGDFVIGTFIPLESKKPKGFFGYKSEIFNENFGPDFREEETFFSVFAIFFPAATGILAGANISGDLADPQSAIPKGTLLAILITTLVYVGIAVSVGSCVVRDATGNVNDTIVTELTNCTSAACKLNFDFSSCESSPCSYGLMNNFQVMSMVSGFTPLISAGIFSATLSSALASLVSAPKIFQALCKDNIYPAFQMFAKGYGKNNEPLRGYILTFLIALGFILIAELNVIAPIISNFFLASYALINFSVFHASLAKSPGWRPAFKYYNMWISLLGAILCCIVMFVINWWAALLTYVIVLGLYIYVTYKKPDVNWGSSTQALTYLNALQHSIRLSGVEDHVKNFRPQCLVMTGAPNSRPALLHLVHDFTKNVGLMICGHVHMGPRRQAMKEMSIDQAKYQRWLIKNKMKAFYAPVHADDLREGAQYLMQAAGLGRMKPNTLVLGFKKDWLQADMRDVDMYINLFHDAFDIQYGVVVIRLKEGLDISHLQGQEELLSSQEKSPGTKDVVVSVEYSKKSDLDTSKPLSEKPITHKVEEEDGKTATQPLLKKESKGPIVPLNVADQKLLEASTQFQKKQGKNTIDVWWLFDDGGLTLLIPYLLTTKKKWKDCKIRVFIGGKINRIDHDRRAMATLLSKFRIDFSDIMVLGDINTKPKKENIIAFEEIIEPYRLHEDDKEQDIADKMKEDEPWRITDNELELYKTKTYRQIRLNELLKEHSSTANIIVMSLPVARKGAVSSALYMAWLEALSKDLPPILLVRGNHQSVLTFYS
Text: Cet effet a été étudié selon la méthodologie décrite par G. GARAY et coll. dans Naunyn-Schmidberg's Arch. Pharmakol. […] Pharm.

EFFET SUR L'ECHANGEUR D'ANIONS IC 50 (ECHANGEUR D'ANIONS): Non actif | ACTIVITE ANTI-LIPOXYGENASE IC 50 (lipoxygénase de soja): Inactif | EFFET SUR LE COTRANSPORT Na-K IC 50 (COTRANSPORT Na-K): Non actif
Compound: COc1cccc(CCOc2ccc(F)cc2)c1 [ex 169]
Pouvoir diurétique en % (SOURIS): Inactif | Rapport Na/K en % (SOURIS): Inactif | M à 50 [1]: inactif | minimal effective dose (RAT): 12 mg/kg
